# Measured values published in ChEMBL document CHEMBL3988181, “GlaxoSmithKline Published Kinase Inhibitor Set 2 Onchocerca lienalis Screening Data”.
# Experiment: GSK PKIS2: Screen against O. lienalis microfilariae, single point, at 3.1uM to assess reduction in motility. Compounds were also tested for cytotoxicity against Rhesus Monkey LLCMK2 cells.
# Format: functional, Onchocerca lienalis, LLC-MK2
# Conditions: CELL_LINE LLCMK2; CELL_SUPPLIER ECACC; CONC 3.1 uM; ORGANISM_SUPPLIER Extracted from peri-umbilical skin obtained from naturally infected cattle in the UK; temperature 37 degree C
structure (smiles),measurement,value
CSc1nn2c(=O)cc(N3CCOCC3)nc2n1Cc1cccc(Cl)c1Cl,MOTILITY REDUCTION/CYTOTOXICITY,46.7%
NCC(NC(=O)c1cc(-c2ccccc2)c(-c2ccnc3[nH]ccc23)s1)c1ccccc1 (stereo not drawn),MOTILITY REDUCTION/CYTOTOXICITY,0%
CSc1ccc(-c2nc3n(c2-c2ccncc2)CCC3)cc1,MOTILITY REDUCTION/CYTOTOXICITY,0%
O=c1cc(N2CCOCC2)nc2n(Cc3ccccc3F)ccn12,MOTILITY REDUCTION/CYTOTOXICITY,0%
Nc1ncnc2c1nc(-c1ccccc1)n2-c1ccccc1,MOTILITY REDUCTION/CYTOTOXICITY,0%
O=C(Nc1n[nH]c2nc(-c3ccccc3)c(Br)cc12)C1CC1,MOTILITY REDUCTION/CYTOTOXICITY,20%
COc1cc(Nc2ccnc3ccc(C(F)(F)F)cc23)cc(OC)c1OC,MOTILITY REDUCTION/CYTOTOXICITY,0%
CC(C)Oc1ccc2c(-c3ccnc(Nc4ccc(N5CCN(C)CC5)cc4)n3)cnn2n1,MOTILITY REDUCTION/CYTOTOXICITY,0%
Cc1ccccc1-c1cc(-c2c[nH]nc2-c2ccccn2)ccn1,MOTILITY REDUCTION/CYTOTOXICITY,0%
COc1cc2ncn(-c3cc(OCCCc4ccccc4)c(C(N)=O)s3)c2cc1OC,MOTILITY REDUCTION/CYTOTOXICITY,33.4%
Cc1c(Cn2c3ccccc3n3c(=O)cc(N4CCOCC4)nc23)cccc1C(F)(F)F,MOTILITY REDUCTION/CYTOTOXICITY,0%
Cc1ccc(C(=O)Nc2ccc(Nc3ccnc4cc(-c5nccs5)ccc34)cc2O)cc1,MOTILITY REDUCTION/CYTOTOXICITY,0%
CC(C)(C)c1ccc(-n2cnc3c(N)ncnc32)cc1,MOTILITY REDUCTION/CYTOTOXICITY,0%
O=C1NC(=O)C(N2CCc3ccccc32)=C1c1ccccc1Cl,MOTILITY REDUCTION/CYTOTOXICITY,20%
CC(C)(C)OC(=O)NC1CCCN(c2cc(-c3ccc4c(N)n[nH]c4c3)nc(N)n2)C1 (stereo not drawn),MOTILITY REDUCTION/CYTOTOXICITY,0%
CN(C)Cc1ccc(-c2ccc3c(Nc4ccc(Oc5ccccn5)cc4)ccnc3c2)o1,MOTILITY REDUCTION/CYTOTOXICITY,0%
CSc1ccc(NC2=C(c3ccc(Cl)cc3)C(=O)NC2=O)cc1,MOTILITY REDUCTION/CYTOTOXICITY,0%
CSc1ccc(NC2=C(c3cccc(Cl)c3)C(=O)NC2=O)cc1,MOTILITY REDUCTION/CYTOTOXICITY,0%
CCOc1nccc(-c2c(-c3ccc(F)cc3)ncn2C2CCNCC2)n1,MOTILITY REDUCTION/CYTOTOXICITY,0%
COc1cc(Nc2ccnc3cc(-c4ccncc4)ccc23)cc(OC)c1OC,MOTILITY REDUCTION/CYTOTOXICITY,33.4%
CCCC(=O)Nc1n[nH]c2ncccc12,MOTILITY REDUCTION/CYTOTOXICITY,20%
Fc1ccc(-c2nn3c(OCC(F)(F)F)cccc3c2-c2ccncc2)cc1,MOTILITY REDUCTION/CYTOTOXICITY,13.4%
Nc1n[nH]c2cnc(-c3ccccc3)cc12,MOTILITY REDUCTION/CYTOTOXICITY,0%
Oc1ccc(-c2[nH]c(-c3ccccc3)nc2-c2ccncc2)cc1,MOTILITY REDUCTION/CYTOTOXICITY,0%
CN(C)CCNS(=O)(=O)c1ccc(-c2ccnc3[nH]ccc23)cc1,MOTILITY REDUCTION/CYTOTOXICITY,26.7%
Cc1ccc(NC(=O)c2cccc(C#N)c2)cc1-c1ccc(C(=O)Nc2ccncc2)cc1,MOTILITY REDUCTION/CYTOTOXICITY,73.4%
Cc1nn2c(=O)cc(N3CCOCC3)nc2n1Cc1cccc(Cl)c1Cl,MOTILITY REDUCTION/CYTOTOXICITY,0%
O=C(Nc1n[nH]c2nc(-c3nccs3)c(Br)cc12)C1CCCC1,MOTILITY REDUCTION/CYTOTOXICITY,20%
CC(C)N1CCC(n2cnc(-c3ccc(F)cc3)c2-c2ccnc(N)n2)CC1,MOTILITY REDUCTION/CYTOTOXICITY,0%
CCCc1ccc(S(=O)(=O)NC2CCN(c3ccnc(Nc4ccc(F)cc4)n3)C2)cc1 (stereo not drawn),MOTILITY REDUCTION/CYTOTOXICITY,0%
O=C(NCCNc1ccnc(Nc2ccc(F)cc2)n1)Nc1ccccc1F,MOTILITY REDUCTION/CYTOTOXICITY,0%
O=C(Nc1n[nH]c2nc(-c3ccccc3)ccc12)C1CC1,MOTILITY REDUCTION/CYTOTOXICITY,0%
c1ccc(Cn2cnc3cc(Nc4ncnc5ccccc45)ccc32)cc1,MOTILITY REDUCTION/CYTOTOXICITY,16.7%
CCNCC(Cc1ccccc1)NC(=O)c1cc(Br)c(-c2ccnc3[nH]ccc23)s1 (stereo not drawn),MOTILITY REDUCTION/CYTOTOXICITY,0%
Cc1ccc(NC(=O)Nc2ccccc2F)cc1-c1ccc(C(=O)Nc2ccncc2)cc1,MOTILITY REDUCTION/CYTOTOXICITY,53.4%
CCOC(=O)N1CCC(n2cnc(-c3ccc(F)cc3)c2-c2ccnc(N)n2)CC1,MOTILITY REDUCTION/CYTOTOXICITY,0%
COc1ccc(Nc2nccc(NCCNC(=O)Nc3ccccc3F)n2)cc1,MOTILITY REDUCTION/CYTOTOXICITY,0%
COc1ccc(Nc2ncc(C#N)c(Nc3ccccc3C(N)=O)n2)cc1N1CCN(C)CC1,MOTILITY REDUCTION/CYTOTOXICITY,13.4%
Cc1cccc2c(-c3ccncc3)c(-c3ccc(F)cc3)nn12,MOTILITY REDUCTION/CYTOTOXICITY,46.7%
CC1=C(C(=O)Nc2cc3cn[nH]c3cc2F)C(c2ccc(C(F)(F)F)cc2)CC(=O)N1 (stereo not drawn),MOTILITY REDUCTION/CYTOTOXICITY,0%
O=C(Nc1c(F)cccc1F)c1cc(C(=O)c2ccccc2F)c[nH]1,MOTILITY REDUCTION/CYTOTOXICITY,0%
NC(CNC(=O)c1cc(Br)c(-c2ccnc3[nH]ccc23)s1)c1ccccc1 (stereo not drawn),MOTILITY REDUCTION/CYTOTOXICITY,40%
O=C(Nc1[nH]nc2cc(-c3ccccc3F)ccc12)C1CC1,MOTILITY REDUCTION/CYTOTOXICITY,0%
COc1ccc(Nc2nccc(-c3cccc(NC(=O)c4cc5cc(F)ccc5[nH]4)c3)n2)cc1,MOTILITY REDUCTION/CYTOTOXICITY,53.4%
CCn1c(-c2c(N)noc2C)nc2cnccc21,MOTILITY REDUCTION/CYTOTOXICITY,0%
COc1ccc(NC(=O)c2ccc(-c3cc(-c4nnc(C)o4)ccc3C)cc2)cc1,MOTILITY REDUCTION/CYTOTOXICITY,33.4%
COc1cc2ncn(-c3cc(OCC4CCCO4)c(C(N)=O)s3)c2cc1OC (stereo not drawn),MOTILITY REDUCTION/CYTOTOXICITY,46.7%
Cn1cnc2c(N)ncnc21,MOTILITY REDUCTION/CYTOTOXICITY,0%
CCN(CC)CCOc1ccc(Nc2ncc3cc(-c4c(Cl)cccc4Cl)c(=O)n(C)c3n2)cc1 [PD-0166285],MOTILITY REDUCTION/CYTOTOXICITY,33.4%
CN1CCN(Cc2ccc(NC(=O)Nc3ccc(N(C)c4ccnc(Nc5ccc(CS(C)(=O)=O)cc5)n4)cc3)cc2)CC1,MOTILITY REDUCTION/CYTOTOXICITY,100%
O=C(NCCCN1CCOCC1)c1cccc(Nc2nccc(Nc3ccc(Oc4ccccc4)cc3)n2)c1,MOTILITY REDUCTION/CYTOTOXICITY,13.4%
NC(=O)Nc1sc(-c2ccc(F)cc2)cc1C(N)=O,MOTILITY REDUCTION/CYTOTOXICITY,33.4%
CNC(=O)c1ccccc1Nc1nc(Nc2cccc(CS(C)(=O)=O)c2)ncc1C,MOTILITY REDUCTION/CYTOTOXICITY,33.4%
O=c1cc(N2CCOCC2)nc2n(Cc3cccc(F)c3)ccn12,MOTILITY REDUCTION/CYTOTOXICITY,0%
CC(=O)Nc1n[nH]c2ncc(-c3ccccc3)cc12,MOTILITY REDUCTION/CYTOTOXICITY,0%
FC(F)(F)c1ccc(-c2cc(-c3c[nH]nc3-c3ccccn3)ccn2)cc1,MOTILITY REDUCTION/CYTOTOXICITY,0%
COc1ccc(Nc2nccc(NCCNC(=O)Nc3cc(C)ccc3C)n2)cc1,MOTILITY REDUCTION/CYTOTOXICITY,33.4%
Nc1ncc(-c2ccc3nccc(-c4ccncc4)c3c2)cc1S(=O)(=O)N1CCOCC1,MOTILITY REDUCTION/CYTOTOXICITY,40%
c1ccc(-c2ccc3c(Nc4ccc5[nH]ncc5c4)ccnc3c2)nc1,MOTILITY REDUCTION/CYTOTOXICITY,60%
Cc1ccc(C(=O)NC2CCCC2)cc1-c1ccc(C(=O)NCC2CC2)cc1,MOTILITY REDUCTION/CYTOTOXICITY,20%
O=C(Nc1n[nH]c2nc(-c3nccs3)c(Br)cc12)C1CC1,MOTILITY REDUCTION/CYTOTOXICITY,20%
COc1ccc(Nc2nccc(N3CCC(NS(=O)(=O)c4ccc(NC(C)=O)cc4)C3)n2)cc1 (stereo not drawn),MOTILITY REDUCTION/CYTOTOXICITY,33.4%
COc1cc(Nc2nccc(N3CCC(NC(=O)c4cccc(NC(C)=O)c4)C3)n2)cc(OC)c1OC (stereo not drawn),MOTILITY REDUCTION/CYTOTOXICITY,33.4%
Cc1ccccc1COc1cc(-n2cnc3cc(Cl)ccc32)sc1C(N)=O,MOTILITY REDUCTION/CYTOTOXICITY,0%
CN1CCN(CCCNc2nccc(-c3c(-c4ccc(F)cc4)nn4cc(C(N)=O)ccc34)n2)CC1,MOTILITY REDUCTION/CYTOTOXICITY,13.4%
O=C1NC(=O)C(N2CCc3ccccc32)=C1c1cccc(Cl)c1,MOTILITY REDUCTION/CYTOTOXICITY,0%
O=c1[nH]ccc2nc(N[C@@H]3CCCNC3)nc(Nc3ccc(S(=O)(=O)N4CCOCC4)cc3)c12,MOTILITY REDUCTION/CYTOTOXICITY,46.7%
Cc1cc(N2Cc3ccccc3C2)nc(Nc2ccc(S(=O)(=O)N3CCOCC3)cc2)n1,MOTILITY REDUCTION/CYTOTOXICITY,0%
Nc1n[nH]c2nnc(-c3ccccc3)cc12,MOTILITY REDUCTION/CYTOTOXICITY,0%
COc1ccc(Nc2nccc(NCCNC(=O)c3cc4ccccc4s3)n2)cc1,MOTILITY REDUCTION/CYTOTOXICITY,16.7%
Cc1c(Cn2ccn3c(=O)cc(N4CCOCC4)nc23)cccc1C(F)(F)F,MOTILITY REDUCTION/CYTOTOXICITY,0%
COc1cccc(C2=C(Nc3cccc(O)c3)C(=O)NC2=O)c1,MOTILITY REDUCTION/CYTOTOXICITY,13.4%
Cc1ccc(NC(=O)Nc2cccc(Cl)c2)cc1-c1ccc(C(=O)Nc2ccncc2)cc1,MOTILITY REDUCTION/CYTOTOXICITY,33.4%
Fc1cccc(COc2ccc(Nc3ncnc4nn5ccccc5c34)cc2Cl)c1,MOTILITY REDUCTION/CYTOTOXICITY,0%
COc1cccc(NC(=O)NC2CCN(c3ccnc(Nc4cc(OC)c(OC)c(OC)c4)n3)C2)c1 (stereo not drawn),MOTILITY REDUCTION/CYTOTOXICITY,86.7%
Cc1ccn2nc(-c3ccc(F)cc3)c(-c3ccncc3)c2c1,MOTILITY REDUCTION/CYTOTOXICITY,0%
Nc1ncc(-c2ccc3nccc(-c4ccncc4)c3c2)cc1S(=O)(=O)N1CCCCC1,MOTILITY REDUCTION/CYTOTOXICITY,33.4%
Nc1nccc2scc(-c3ccc4c(c3)CCN4C(=O)Cc3cc(F)ccc3F)c12,MOTILITY REDUCTION/CYTOTOXICITY,0%
O=C(c1ccc(-c2cc(-c3c[nH]nc3-c3ccccn3)ccn2)cc1)N1CCOCC1,MOTILITY REDUCTION/CYTOTOXICITY,0%
CCCc1ccc(S(=O)(=O)NC2CCN(c3ccnc(Nc4ccc(OC)cc4)n3)C2)cc1 (stereo not drawn),MOTILITY REDUCTION/CYTOTOXICITY,0%
Cn1cncc1-c1cc2c(Nc3ccc(OCc4ccccc4)cc3)ncnc2cn1,MOTILITY REDUCTION/CYTOTOXICITY,0%
C[C@@H]1CC[C@@H](C(=O)Nc2ccccc2)CN1c1cc(-c2ccc3c(N)n[nH]c3c2)nc(N)n1,MOTILITY REDUCTION/CYTOTOXICITY,0%
O=c1cc(N2CCOCC2)nc2n(Cc3cccc(Cl)c3Cl)c3ccccc3n12,MOTILITY REDUCTION/CYTOTOXICITY,0%
COC(=O)Nc1nc2ccc(Oc3ccc(NC(=O)Nc4cc(C(F)(F)F)ccc4F)cn3)cc2[nH]1,MOTILITY REDUCTION/CYTOTOXICITY,0%
Fc1ccc(-c2nn3cccc(F)c3c2-c2ccncc2)cc1,MOTILITY REDUCTION/CYTOTOXICITY,0%
NS(=O)(=O)c1cccc(-c2ccc3ncc(N4CCOCC4)nc3c2)c1,MOTILITY REDUCTION/CYTOTOXICITY,0%
COc1cc(Nc2nccc(N3CCC(NC(=O)C4COc5ccccc5O4)C3)n2)cc(OC)c1OC (stereo not drawn),MOTILITY REDUCTION/CYTOTOXICITY,0%
COc1cc(Nc2nccc(N3CCC(NC(=O)c4cccc(C#N)c4)C3)n2)cc(OC)c1OC (stereo not drawn),MOTILITY REDUCTION/CYTOTOXICITY,0%
Cc1ccc2c(-c3ccncc3)c(-c3ccc(F)cc3)nn2c1,MOTILITY REDUCTION/CYTOTOXICITY,0%
COc1cccc(C2=C(Nc3cccc(C(=O)O)c3)C(=O)NC2=O)c1,MOTILITY REDUCTION/CYTOTOXICITY,0%
CN(C)CCOc1ccc(-c2cc(-c3c[nH]nc3-c3ccccn3)ccn2)cc1,MOTILITY REDUCTION/CYTOTOXICITY,0%
COc1cccc(C2=C(Nc3cc(Cl)c(O)c(Cl)c3)C(=O)NC2=O)c1,MOTILITY REDUCTION/CYTOTOXICITY,0%
Nc1nccc(-c2ccc3c(N)n[nH]c3c2)n1,MOTILITY REDUCTION/CYTOTOXICITY,0%
